This note sets out measurements from PubChem BioAssay (NCI).

Test systems include OVCAR-8 ovarian; BT-549 breast; IGROV1 ovarian; MDA-MB-231 breast; HL-60(TB) leukemia; HCC-2998 colon; TK-10 renal; UACC-62 melanoma; CAKI-1 renal; SF-539 CNS; SK-OV-3 ovarian; MDA-MB-435; HCT-116 colon; M14 melanoma.
Holding throughout (assay): NCI tumour cell line growth inhibition, 48 h

Structures are written as SMILES.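 Briefly, cells in 96-well plates were exposed to five compound concentrations for 48 h, and endpoints were estimated by linear interpolation. At the GI50, growth is halved. TGI marks complete inhibition of growth.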 A value given as a limit tells only on which side of the number the result lay.

Consider `CN(C)CCn1c(=O)c2ccc(NCCNCCO)c3c(=O)c4ccccc4n(c1=O)c23`, for which the TGI turned out to be 5.64 µM in the assay with OVCAR-8 ovarian; 4.81 µM with BT-549 breast; 1.87 µM in the assay on IGROV1 ovarian; 0.852 µM with MDA-MB-231 breast; 0.0197 µM in the assay with HL-60(TB) leukemia; 2.34 µM in the assay with HCC-2998 colon. Moreover, the TGI in the assay on TK-10 renal stood at 6.95 µM; in the assay on UACC-62 melanoma it was 0.88 µM; in the assay on CAKI-1 renal, 0.186 µM; with SF-539 CNS it was 0.593 µM; in the assay on SK-OV-3 ovarian, 16.2 µM; in the assay with MDA-MB-435 it was 2.07 µM. The TGI was 3.4 µM in the assay with HCT-116 colon and 1.72 µM with M14 melanoma.
Turning to `COC(=O)C1C2OC(C)(C)OC2CN1S(=O)(=O)c1ccc(C)cc1` (configuration not stated), the TGI with OVCAR-8 ovarian, in the assay on BT-549 breast, in the assay on IGROV1 ovarian, in the assay on MDA-MB-231 breast, in the assay on HL-60(TB) leukemia and in the assay with HCC-2998 colon was above 100 µM throughout. For the same compound, the TGI in the assay on TK-10 renal, in the assay with UACC-62 melanoma, in the assay on CAKI-1 renal, in the assay on SF-539 CNS, with SK-OV-3 ovarian and in the assay on MDA-MB-435 was above 100 µM throughout. The TGI in the assay with HCT-116 colon and with M14 melanoma was above 100 µM in each case.
As to `O=C(Nc1ccc(Cl)cc1)c1cc(S(=O)(=O)Nc2n[nH]c(Nc3ccc4ccccc4c3)n2)c(SSc2cc(Cl)c(C(=O)Nc3ccc(Cl)cc3)cc2S(=O)(=O)Nc2n[nH]c(Nc3ccc4ccccc4c3)n2)cc1Cl`, the TGI in the assay on OVCAR-8 ovarian was above 71.9 µM; in the assay with BT-549 breast it was 61.1 µM; in the assay on IGROV1 ovarian, 56.1 µM; in the assay on MDA-MB-231 breast it was 46.5 µM; with HL-60(TB) leukemia it was above 63 µM; with HCC-2998 colon, 43.7 µM. The TGI in the assay with TK-10 renal was 60.8 µM; in the assay on UACC-62 melanoma, 51.7 µM; in the assay with CAKI-1 renal, 38 µM; in the assay on SF-539 CNS, 60.5 µM; in the assay on SK-OV-3 ovarian, 66.5 µM; in the assay with MDA-MB-435 it was above 80.3 µM. Moreover, the TGI with HCT-116 colon was determined as 39.5 µM; in the assay on M14 melanoma it was 59 µM.
In the case of `CCOC(=O)CC[C@H](N)C(=O)N[C@@H](Cc1ccc(N(CCCl)CCCl)cc1)C(=O)OCC`, the GI50 in the assay with OVCAR-8 ovarian is 0.564 µM. Besides, the TGI in the assay with OVCAR-8 ovarian is 1.99 µM; in the assay with BT-549 breast, 22.3 µM; with IGROV1 ovarian, 4.75 µM; with MDA-MB-231 breast, 4.41 µM; with HL-60(TB) leukemia, 1.33 µM; in the assay with HCC-2998 colon, 2.59 µM. Also, the TGI came out at 4.26 µM with TK-10 renal; 1.84 µM in the assay with UACC-62 melanoma; 4.39 µM in the assay with CAKI-1 renal; 2.8 µM in the assay on SF-539 CNS; 4.99 µM in the assay with SK-OV-3 ovarian; 2.83 µM with MDA-MB-435. Moreover, the TGI in the assay on HCT-116 colon was 4.09 µM; in the assay with M14 melanoma, 1.59 µM.
For the compound `CC(=O)C(C(=O)c1ccc(C)cc1)[C@@H]1OC(C)(C)O[C@@H]1[C@H]1COC(C)(C)O1` (some centres not stated), the TGI in the assay with OVCAR-8 ovarian is above 50.7 µM; with BT-549 breast it was above 32.4 µM; with IGROV1 ovarian, above 74.8 µM; in the assay on MDA-MB-231 breast it was above 35.1 µM; in the assay on HL-60(TB) leukemia, 25.1 µM; in the assay on HCC-2998 colon, above 53.4 µM. The TGI is above 100 µM in the assay with TK-10 renal; 25.8 µM in the assay with UACC-62 melanoma; 53.6 µM in the assay on CAKI-1 renal; 13.2 µM in the assay with SF-539 CNS; above 100 µM in the assay on SK-OV-3 ovarian; above 59.8 µM with MDA-MB-435. The TGI with HCT-116 colon was 15.4 µM; with M14 melanoma, 35.8 µM.
For the compound `O=S(=O)(O)CCSSCCS(=O)(=O)O`, the TGI in the assay on OVCAR-8 ovarian, in the assay with BT-549 breast, in the assay with IGROV1 ovarian, in the assay on MDA-MB-231 breast, in the assay on HL-60(TB) leukemia and in the assay on HCC-2998 colon was above 1000 µM each time. In addition, the TGI in the assay on TK-10 renal, in the assay on UACC-62 melanoma, with CAKI-1 renal, with SF-539 CNS, with SK-OV-3 ovarian and in the assay on MDA-MB-435 was above 1000 µM each time. The TGI in the assay with HCT-116 colon and with M14 melanoma was above 1000 µM throughout.
Consider `CC(NC(=O)OCc1ccccc1)NC(=O)OC(C)(C)C` (configuration not stated), for which the TGI with OVCAR-8 ovarian, in the assay with BT-549 breast, with IGROV1 ovarian, in the assay on MDA-MB-231 breast, with HL-60(TB) leukemia and with HCC-2998 colon was above 100 µM in each case. For the same compound, the TGI in the assay on TK-10 renal, in the assay with UACC-62 melanoma, in the assay on CAKI-1 renal, in the assay on SF-539 CNS, with SK-OV-3 ovarian and with MDA-MB-435 was above 100 µM each time. Besides, the TGI in the assay with HCT-116 colon and with M14 melanoma was above 100 µM each time.
Consider `C=CCN1C(=O)/C(=C/c2ccc(Cl)cc2)N=C1SC/C=C/C`, for which the TGI was above 100 µM in the assay with OVCAR-8 ovarian; above 100 µM in the assay on BT-549 breast; above 100 µM with IGROV1 ovarian; above 100 µM in the assay on MDA-MB-231 breast; 57.5 µM in the assay on HL-60(TB) leukemia; above 100 µM in the assay with HCC-2998 colon. Besides, the TGI in the assay on TK-10 renal, in the assay with UACC-62 melanoma, in the assay with CAKI-1 renal, in the assay on SF-539 CNS, in the assay with SK-OV-3 ovarian and with MDA-MB-435 was above 100 µM in each case. Besides, the TGI with HCT-116 colon and with M14 melanoma was above 100 µM in each case.
Turning to `COc1ccc(N2C(=O)C3c4[nH]c5ccc(C)cc5c4C4CCC(C(C)(C)C)CC4C3C2=O)cc1` (configuration not stated), the TGI in the assay with OVCAR-8 ovarian is 25.1 µM; in the assay on BT-549 breast, 67.9 µM; with IGROV1 ovarian, above 100 µM; in the assay on MDA-MB-231 breast, above 100 µM; with HL-60(TB) leukemia, above 100 µM; with HCC-2998 colon, above 100 µM. Besides, the TGI in the assay on TK-10 renal was 45.1 µM; with UACC-62 melanoma it was 29.7 µM; with CAKI-1 renal, 23.7 µM; in the assay with SF-539 CNS, 36.5 µM; in the assay with SK-OV-3 ovarian, 29.5 µM; in the assay with MDA-MB-435, above 100 µM. In addition, the TGI worked out at 40.5 µM in the assay with HCT-116 colon and 34.3 µM with M14 melanoma.
